Reference: PMC7587962, “Evaluation of Cytotoxicity and α-Glucosidase Inhibitory Activity of Amide and Polyamino-Derivatives of Lupane Triterpenoids” (Molecules, 2020)

Legend:
[1] = tested on: K-562; assay: NCI-60 SRB screen: leukemia K-562; format: cell-based, human; details: K-562
[2] = tested on: RPMI-8226; assay: NCI-60 SRB screen: leukemia RPMI-8226; format: cell-based; details: Homo sapiens, 48 h, RPMI-8226
[3] = tested on: HOP-62; assay: NCI-60 SRB screen: non-small cell lung cancer HOP-62; format: cell-based, human; details: HOP-62
[4] = tested on: NCI-H226; assay: NCI-60 SRB screen: non-small cell lung cancer NCI-H226; format: cell-based, human; details: NCI-H226
[5] = tested on: NCI-H522; assay: NCI-60 SRB screen: non-small cell lung cancer NCI-H522; format: cell-based, human; details: NCI-H522
[6] = tested on: COLO 205; assay: NCI-60 SRB screen: colon cancer COLO 205; format: cell-based, human; details: COLO 205
[7] = tested on: HCC-2998; assay: NCI-60 SRB screen: colon cancer HCC-2998; format: cell-based, human; details: HCC-2998
[8] = tested on: HCT-116; assay: NCI-60 SRB screen: colon cancer HCT-116; format: cell-based; details: Homo sapiens, 48 h, HCT-116
[9] = tested on: HCT-15; assay: NCI-60 SRB screen: colon cancer HCT-15; format: cell-based, human; details: HCT-15
[10] = tested on: HT29; assay: NCI-60 SRB screen: colon cancer HT29; format: cell-based; details: Homo sapiens, HT29
[11] = tested on: KM12; assay: NCI-60 SRB screen: colon cancer KM12; format: cell-based, human; details: KM12
[12] = tested on: SW-620; assay: NCI-60 SRB screen: colon cancer SW-620; format: cell-based; details: Homo sapiens, 48 h, SW-620
[13] = tested on: SF-268; assay: NCI-60 SRB screen: CNS cancer SF-268; format: cell-based, human; details: SF-268
[14] = tested on: SF-539; assay: NCI-60 SRB screen: CNS cancer SF-539; format: cell-based, human; details: SF-539
[15] = tested on: LOX IMVI; assay: NCI-60 SRB screen: melanoma LOX IMVI; format: cell-based, human
[16] = tested on: MALME-3M; assay: NCI-60 SRB screen: melanoma MALME-3M; format: cell-based, human; details: MALME-3M
[17] = tested on: MDA-MB-435; assay: NCI-60 SRB screen: melanoma MDA-MB-435; format: cell-based, human; details: MDA-MB-435
[18] = tested on: SK-MEL-2; assay: NCI-60 SRB screen: melanoma SK-MEL-2; format: cell-based, human; details: SK-MEL-2
[19] = tested on: OVCAR-8; assay: NCI-60 SRB screen: ovarian cancer OVCAR-8; format: cell-based, human; details: OVCAR-8
[20] = tested on: SK-OV-3; assay: NCI-60 SRB screen: ovarian cancer SK-OV-3; format: cell-based, human; details: SK-OV-3
[21] = tested on: 786-0; assay: NCI-60 SRB screen: renal cancer 786-0; format: cell-based, human; details: 786-0
[22] = tested on: A498; assay: NCI-60 SRB screen: renal cancer A498; format: cell-based, human; details: A498
[23] = tested on: ACHN; assay: NCI-60 SRB screen: renal cancer ACHN; format: cell-based, human
[24] = tested on: CAKI-1; assay: NCI-60 SRB screen: renal cancer CAKI-1; format: cell-based, human; details: CAKI-1
[25] = tested on: RXF 393; assay: NCI-60 SRB screen: renal cancer RXF 393; format: cell-based, human; details: RXF 393
[26] = tested on: SN12C; assay: NCI-60 SRB screen: renal cancer SN12C; format: cell-based, human
[27] = tested on: TK-10; assay: NCI-60 SRB screen: renal cancer TK-10; format: cell-based, human; details: TK-10
[28] = tested on: UO-31; assay: NCI-60 SRB screen: renal cancer UO-31; format: cell-based, human; details: UO-31
[29] = tested on: PC-3; assay: NCI-60 SRB screen: prostate cancer PC-3; format: cell-based, human; details: PC-3
[30] = tested on: DU-145; assay: NCI-60 SRB screen: prostate cancer DU-145; format: cell-based, human; details: DU-145
[31] = tested on: MDA-MB-231/ATCC; assay: NCI-60 SRB screen: breast cancer MDA-MB-231/ATCC; format: cell-based; details: Homo sapiens, 48 h
[32] = tested on: BT-549; assay: NCI-60 SRB screen: breast cancer BT-549; format: cell-based, human; details: BT-549
[33] = tested on: T-47D; assay: NCI-60 SRB screen: breast cancer T-47D; format: cell-based, human; details: T-47D
[34] = tested on: 60 human tumor cell lines; details: single dose 10 µM
[35] = tested on: Breast cancer subpanel; assay: NCI-60 screen, subpanel Breast cancer
[36] = tested on: Prostate cancer subpanel; assay: NCI-60 screen, subpanel Prostate cancer
[37] = single dose 10 µM, read-out: Percentage Cell Growth
[38] = five concentrations, SRB, read-out: GI50
[39] = Homo sapiens, five concentrations, 48 h, SRB, read-out: GI50

CC(=O)OCC12CCC(C(C)C(N)=O)C1C1CCC3C4(C)CCC(OC(C)=O)C(C)(C)C4CCC3(C)C1(C)CC2 [Compound 4, 3β,28-Diacetyloxy-(20R)-29-amino-29-oxolupane]
GI50 ([1]; Homo sapiens, K562, five concentrations, 48 h, SRB, read-out: GI50): 4.09 µM | Percentage Cell Growth ([1]; single dose 10 µM): 3.10% | activity at 10 µM [2, 37]: -18.3% | GI50 [2, 38]: 2.63 µM | Percentage Cell Growth ([3]; single dose 10 µM): −72.98% | GI50 [3, 39]: 1.1 µM | GI50 [4, 39]: 7.28 µM | Percentage Cell Growth ([4]; single dose 10 µM): −58.51% | GI50 [5, 39]: 4.94 µM | Percentage Cell Growth ([5]; single dose 10 µM): −61.13% | Percentage Cell Growth ([6]; single dose 10 µM): −52.98% | GI50 [6, 39]: 4.31 µM | Percentage Cell Growth ([7]; single dose 10 µM): −68.10% | GI50 [7, 39]: 10.4 µM | activity at 10 µM [8, 37]: -84.2% | GI50 [8, 38]: 3.57 µM | Percentage Cell Growth ([9]; single dose 10 µM): −44.10% | GI50 [9, 39]: 4.04 µM | activity at 10 µM ([10]; HT-29, 48 h, single dose 10 µM, read-out: Percentage Cell Growth): -77.7% | GI50 ([10]; HT-29, five concentrations, 48 h, SRB, read-out: GI50): 3.73 µM | GI50 [11, 39]: 3.86 µM | Percentage Cell Growth ([11]; single dose 10 µM): −62.05% | activity at 10 µM [12, 37]: -55.1% | GI50 [12, 38]: 7.7 µM | GI50 [13, 39]: 6.95 µM | Percentage Cell Growth ([13]; single dose 10 µM): −61.04% | GI50 [14, 39]: 5.52 µM | Percentage Cell Growth ([14]; single dose 10 µM): −83.91% | GI50 [15, 39]: 10.2 µM | Percentage Cell Growth ([15]; single dose 10 µM): −85.52% | GI50 [16, 39]: 10.5 µM | Percentage Cell Growth ([16]; single dose 10 µM): −88.97% | GI50 [17, 39]: 5.23 µM | Percentage Cell Growth ([17]; single dose 10 µM): −63.78% | GI50 [18, 39]: 10.8 µM | Percentage Cell Growth ([18]; single dose 10 µM): −77.63% | GI50 [19, 39]: 54.4 µM | Percentage Cell Growth ([19]; single dose 10 µM): −31.70% | GI50 [20, 39]: 13.4 µM | Percentage Cell Growth ([20]; single dose 10 µM): −11.89% | Percentage Cell Growth ([21]; single dose 10 µM): −73.99% | GI50 [21, 39]: 10.9 µM | Percentage Cell Growth ([22]; single dose 10 µM): −81.70% | GI50 [22, 39]: 12.8 µM | GI50 [23, 39]: 5.78 µM | Percentage Cell Growth ([23]; single dose 10 µM): −75.68% | Percentage Cell Growth ([24]; single dose 10 µM): −45.80% | GI50 [24, 39]: 3.24 µM | GI50 [25, 39]: 4.28 µM | Percentage Cell Growth ([25]; single dose 10 µM): −64.94% | GI50 [26, 39]: 5.65 µM | Percentage Cell Growth ([26]; single dose 10 µM): −91.61% | GI50 [27, 39]: 14.7 µM | Percentage Cell Growth ([27]; single dose 10 µM): −35.40% | GI50 [28, 39]: 7.57 µM | Percentage Cell Growth ([28]; single dose 10 µM): −97.54% | GI50 [29, 39]: 2.67 µM | Percentage Cell Growth ([29]; single dose 10 µM): −47.42% | Percentage Cell Growth ([30]; single dose 10 µM): −69.87% | GI50 [30, 39]: 9.94 µM | activity at 10 µM ([31]; MDA-MB-231/ATCC, single dose 10 µM, read-out: Percentage Cell Growth): -88.6% | GI50 ([31]; MDA-MB-231, MDA-MB-31/ATCC, five concentrations, SRB, read-out: GI50): 11.8 µM | Percentage Cell Growth ([32]; single dose 10 µM): −55.13% | GI50 [32, 39]: 8.17 µM | GI50 ([33]; Homo sapiens, T47D, five concentrations, 48 h, SRB, read-out: GI50): 2.91 µM | Percentage Cell Growth ([33]; single dose 10 µM): −8.82% | cancer cell lethality, range of percentage growth ([34]; cell lines with negative growth): −8.82% to −97.54% | cases of cancer cell lethality ([34]; number of cell lines): 57 | MID b, average sensitivity of all cell line of particular subpanel [35]: 7.09 µM | Selectivity, ratio MID a: MID b [35]: 1.11 | MID b, average sensitivity of all cell line of particular subpanel [36]: 6.31 µM | Selectivity, ratio MID a: MID b [36]: 1.25
